Reference: patent publication US20020028945A1, “Heterocyclo substituted hydroxamic acid derivatives as cyclooxygenase-2 and 5-lipoxygenase inhibitors” (priority 1996, published 2002)

Key:
COX-1 = COX-1 (UniProt P23219); test: COX-1 activity in vitro (PGE2 ELISA, recombinant enzyme); format: biochemical, human or murine; conditions: recombinant COX-1, arachidonic acid 10 μM
Procedure: Evaluation of COX-1 and COX-2 activity in vitro a. Preparation of recombinant COX baculoviruses
(§1) Recombinant COX-1 and COX-2 were prepared as described by Gierse et al, [J. Biochem., 305, 479-84 (1995)]. A 2.0 kb fragment containing the coding region of either human or murine COX-1 or human or murine COX-2 was cloned into a BamH1 site of the baculovirus tra nsfer vector pVL1393 (Invitrogen) to generate the baculovirus transfer vectors for COX-1 and coX-2 in a manner similar to the method of D. R. O'Reilly et al (Baculovirus Expression Vectors: A Laboratory Manual (1992)). Recombinant baculoviruses were isolated by transfecting 4 μg of baculovirus transfer vector DNA into SF9 insect cells (2×10^8) along with 200 ng of linearized baculovirus plasmid DNA by the calcium phosphate method. See M. D. Summers and G. E. Smith, A Manual of Methods for Baculovirus Vectors and Insect Cell Culture Procedures, Texas Agric. Exp. Station Bull. 1555 (1987). Recombinant viruses were purified by three rounds of plaque purification and high titer (10^7-10^8 pfu/ml) stocks of virus were prepared. For large scale production, SF9 insect cells were infected in 10 liter fermentors (0.5×10^6/ml) with the recombinant baculovirus stock such that the multiplicity of infection was 0.1. After 72 hours the cells were centrifuged and the cell pellet homogenized in Tris/Sucrose (50 mM: 25%, pH 8.0) containing 1% 3-[(3-cholamidopropyl)dimethylammonio]-1-propanesulfonate (CHAPS). The homogenate was centrifuged at 10,000×G for 30 minutes, and the resultant supernatant was stored at −80° C. before being assayed for COX activity. […]
(§2) b. Assay for COX-1 and COX-2 activitv
COX activity was assayed as PGE2 formed/μg protein/time using an ELISA to detect the prostaglandin released. CHAPS-solubilized insect cell membranes containing the appropriate COX enzyme were incubated in a potassium phosphate buffer (50 mM, pH 8.0) containing epinephrine, phenol, and heme with the addition of arachidonic acid (10 μM). […] The PGE2 formed was measured by standard ELISA technology (Cayman Chemical).

5-lipoxygenase (5-LO) = biological target: T1, 5-lipoxygenase (5-LO) (Homo sapiens, UniProt P09917); test: 5-Lipoxygenase activity: calcium ionophore-induced LTB4 production in human whole blood; format: cell-based; conditions: A-23187 20 μg/ml, LTB4 by ELISA, mean IC50
T1 construct: Leukotriene B4 (LTB4) production in human whole blood; from tissue; host or cells: human whole blood (healthy donors, heparinized)
T1 sequence (P09917 1-674): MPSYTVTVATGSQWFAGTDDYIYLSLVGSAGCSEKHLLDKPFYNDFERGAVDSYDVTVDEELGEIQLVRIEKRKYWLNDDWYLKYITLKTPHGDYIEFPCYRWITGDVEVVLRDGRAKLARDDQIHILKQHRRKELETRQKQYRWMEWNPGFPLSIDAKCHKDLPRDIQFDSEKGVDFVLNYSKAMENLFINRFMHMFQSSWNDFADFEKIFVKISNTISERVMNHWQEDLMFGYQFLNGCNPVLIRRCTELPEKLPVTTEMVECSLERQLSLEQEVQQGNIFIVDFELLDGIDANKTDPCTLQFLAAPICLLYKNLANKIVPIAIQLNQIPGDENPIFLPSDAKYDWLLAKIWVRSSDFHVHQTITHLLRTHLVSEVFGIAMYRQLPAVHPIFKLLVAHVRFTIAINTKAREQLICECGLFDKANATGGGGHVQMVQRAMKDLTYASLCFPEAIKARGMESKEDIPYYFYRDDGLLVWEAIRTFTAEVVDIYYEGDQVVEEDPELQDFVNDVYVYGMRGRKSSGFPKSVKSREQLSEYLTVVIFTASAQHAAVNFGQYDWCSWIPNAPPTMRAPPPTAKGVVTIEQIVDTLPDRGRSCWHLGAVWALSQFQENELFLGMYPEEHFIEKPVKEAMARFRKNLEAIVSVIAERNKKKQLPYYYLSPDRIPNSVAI
Procedure: Assay for 5-Lipoxygenase activity
The 5-lipoxygenase (5-LO) activity of the compounds were determined by the calcium ionophore-induced Leukotriene B4 (LTB4) production in human whole blood. Venous blood was collected from healthy human donors using heparin as an anti-coagulant. Human blood samples (0.2 ml of a 1:4 dilution in RPMI 1640 medium) were incubated in 96-well culture plates for 15 minutes at 37° C. with test compounds dissolved in ethanol (EtOH; final concentration <1%), or vehicle. Typically 7 concentrations of test compounds were examined in duplicate. A-23187 [Sigma] was added to the blood to a final concentration of 20 μg/ml, and the mixtures were incubated for 10 minutes at 37° C. The reaction was stopped by placing the samples on ice. The samples were then centrifuged at 800×g at 4° C. for 10 minutes to pellet the cells, and the supernatants were recovered for quantitation of LTB4 by ELISA (Cayman Chemical Co.; sensitivity 3 pg/ml). IC50's were estimated from a four parameter logistic model with two parameters fixed, the minimum (0% inhibition) and maximum (100% inhibition). The IC50 value is the concentration that produces 50% inhibition between the fixed values of the minimum and maximum. Data is reported as the mean IC50 for each compound.

COX-2 = biological target: T2, COX-2 (UniProt P35354); test: COX-2 activity in vitro (PGE2 ELISA, recombinant enzyme); format: biochemical, human or murine; conditions: recombinant COX-2, arachidonic acid 10 μM
T2 sequence (P35354 1-604): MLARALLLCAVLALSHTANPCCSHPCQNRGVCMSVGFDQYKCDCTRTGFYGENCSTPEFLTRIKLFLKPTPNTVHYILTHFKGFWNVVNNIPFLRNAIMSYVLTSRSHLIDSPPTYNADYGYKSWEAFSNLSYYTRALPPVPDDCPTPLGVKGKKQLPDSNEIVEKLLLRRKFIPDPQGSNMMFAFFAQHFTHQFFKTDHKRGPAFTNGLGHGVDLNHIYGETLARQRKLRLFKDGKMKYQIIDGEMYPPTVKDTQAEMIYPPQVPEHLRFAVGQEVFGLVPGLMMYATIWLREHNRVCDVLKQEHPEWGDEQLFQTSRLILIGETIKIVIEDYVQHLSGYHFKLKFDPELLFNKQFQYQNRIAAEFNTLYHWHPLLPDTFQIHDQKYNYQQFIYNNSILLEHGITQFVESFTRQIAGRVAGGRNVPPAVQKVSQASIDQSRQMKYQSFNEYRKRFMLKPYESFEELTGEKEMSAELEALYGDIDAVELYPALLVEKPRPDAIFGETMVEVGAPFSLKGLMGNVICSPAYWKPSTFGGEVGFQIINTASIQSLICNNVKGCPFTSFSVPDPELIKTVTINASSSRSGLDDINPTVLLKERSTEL
Procedure: Evaluation of COX-1 and COX-2 activity in vitro
The COX-2 inhibition activity of the compounds of this invention illustrated in the Examples was determined by the following methods. a. Preparation of recombinant COX baculoviruses
as §1, §2
COX activity was assayed as PGE2 formed/μg protein/time using an ELISA to detect the prostaglandin released. […] The PGE2 formed was measured by standard ELISA technology (Cayman Chemical).

carrageenan foot edema = test: Rat carrageenan foot pad edema test; format: in vivo; conditions: male Sprague-Dawley rats, oral, 3 h after carrageenan
Procedure: Rat Carrageenan Foot Pad Edema Test
The carrageenan foot edema test was performed with materials, reagents and procedures essentially as described by Winter, et al., (Proc. Soc. Exp. Biol. Med., 111, 544 (1962)). Male Sprague-Dawley rats were selected in each group so that the average body weight was as close as possible. Rats were fasted with free access to water for over sixteen hours prior to the test. The rats were dosed orally (1 mL) with compounds suspended in vehicle containing 0.5% methylcellulose and 0.025% surfactant, or with vehicle alone. One hour later a subplantar injection of 0.1 mL of 1% solution of carrageenan/sterile 0.9% saline was administered and the volume of the injected foot was measured with a displacement plethysmometer connected to a pressure transducer with a digital indicator. Three hours after the injection of the carrageenan, the volume of the foot was again measured. The average foot swelling in a group of drug-treated animals was compared with that of a group of placebo-treated animals and the percentage inhibition of edema was determined (Otterness and Bliven, Laboratory Models for Testing NSAIDs, in Non-steroidal Anti-Inflammatory Drugs, (J. Lombardino, ed. 1985)).

Structure (SMILES) | IC50 (COX-1) [µM] | IC50 (5-lipoxygenase (5-LO)) [µM] | IC50 (COX-2) [µM] | RAT PAW EDEMA % Inhibition @ 10 mg/kg body weight (carrageenan foot edema) [%] | melting point
NC(=O)N(O)Cc1cc(-c2ccc(Cl)cc2)n(-c2ccc(S(N)(=O)=O)cc2)n1 [Example 1, N′-[[1-[4-(Aminosulfonyl)phenyl]-5-(4-chlorophenyl)-1H-pyrazol-3-yl]methyl]-N′-hydroxyurea] | 53.5 | 12.3 | 6.6 | – | –
CN(O)C(=O)CCc1nc(-c2ccc(F)cc2)c(-c2ccc(S(C)(=O)=O)cc2)o1 [Example 2, 4-(4-Fluorophenyl)-N-hydroxy-N-methyl-5-[(4-methylsulfonyl)phenyl]-2-oxazolepropanamide] | > 100 | 0.05 | 5.1 | 2 | –
CN(O)C(=O)Cc1cc(-c2ccc(Cl)cc2)n(-c2ccc(S(N)(=O)=O)cc2)n1 [Example 3, [1-[4-(Aminosulfonyl)phenyl]-5-(4-chlorophenyl)-1H-pyrazol-3-yl]-N-hydroxy-N-methyl-ethanamide] | – | – | – | – | 110 to 135 °C (dec.)
NS(=O)(=O)c1ccc(-c2nc(CCCC(=O)NO)oc2-c2ccc(Cl)c(Cl)c2)cc1 [Example 4, 4-[(4-Aminosulfonyl)phenyl]-5-(3,4-dichlorophenyl)-N-hydroxy-2-oxazole-butanamide] | 12.5 | – | 0.3 | – | 165 to 169.7 °C
